# From BindingDB's records for doi:10.1111/cbdd.12724 (Hamdard University (Jamia Hamdard), 2016)
# Target: Glycogen synthase kinase-3 beta (Homo sapiens, UniProt P49841)
# Assay: Kinase-Glo Assay
# Settings: 30 °C
# Description: The final DMSO concentration in the reaction mixture was <1%. After incubation at 30 °C for 30 min, the enzymatic reaction was quenched with 40 μL of Kinase-Glo reagent. Luminescence was recorded after 10 min using Infinite F200® PRO multimode reader (Tecan Group Ltd., Männedorf, Switzerland). The activity is proportional to the difference of the total and consumed ATP.
# Chain of Glycogen synthase kinase-3 beta (P49841 whole entry): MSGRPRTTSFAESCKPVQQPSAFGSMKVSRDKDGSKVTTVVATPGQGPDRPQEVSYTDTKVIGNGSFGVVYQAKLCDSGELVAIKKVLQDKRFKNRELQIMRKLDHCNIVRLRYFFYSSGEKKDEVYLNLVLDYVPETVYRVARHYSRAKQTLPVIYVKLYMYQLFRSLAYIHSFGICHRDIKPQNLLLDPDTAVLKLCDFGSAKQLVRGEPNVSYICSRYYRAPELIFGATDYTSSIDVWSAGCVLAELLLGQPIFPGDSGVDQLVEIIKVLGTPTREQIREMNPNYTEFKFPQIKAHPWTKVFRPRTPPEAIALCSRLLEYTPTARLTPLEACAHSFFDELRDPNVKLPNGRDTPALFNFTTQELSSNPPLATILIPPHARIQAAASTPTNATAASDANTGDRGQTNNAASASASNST
row,IC50 [µM],SMILES
1,17.1,"O=c1oc2cccnc2n1Cc1cn(-c2ccc([N+](=O)[O-])cc2)nn1 [3-((1-(4-nitrophenyl)-1H-1,2,3-triazol-4-yl)methyl)oxazolo[4,5-b]pyridin-2(3H)-one (4p)]"
2,15.6,"O=c1oc2cccnc2n1Cc1cn(-c2cccc([N+](=O)[O-])c2)nn1 [3-((1-(3-nitrophenyl)-1H-1,2,3-triazol-4-yl)methyl)oxazolo[4,5-b]pyridin-2(3H)-one (4o)]"
3,2.49,"O=c1oc2cccnc2n1Cc1cn(-c2ccc(F)cc2)nn1 [3-((1-(4-fluorophenyl)-1H-1,2,3-triazol-4-yl)methyl)oxazolo[4,5-b]pyridin-2(3H)-one (4e)]"
4,23.5,"CC(C)(C)c1ccc(-n2cc(Cn3c(=O)oc4cccnc43)nn2)cc1 [3-((1-(4-tert-butylphenyl)-1H-1,2,3-triazol-4-yl)methyl)oxazolo[4,5-b]pyridin-2(3H)-one (4m)]"
5,0.37,"O=c1oc2cccnc2n1Cc1cn(-c2ccccc2F)nn1 [3-((1-(2-fluorophenyl)-1H-1,2,3-triazol-4-yl)methyl)oxazolo[4,5-b]pyridin-2(3H)-one (4i)]"
6,28.4,"O=c1oc2cccnc2n1Cc1cn(-c2cccc(Cl)c2)nn1 [3-((1-(3-chlorophenyl)-1H-1,2,3-triazol-4-yl)methyl)oxazolo[4,5-b]pyridin-2(3H)-one (4k)]"
7,8.45,"COc1ccc(-n2cc(Cn3c(=O)oc4cccnc43)nn2)cc1 [3-((1-(4-methoxyphenyl)-1H-1,2,3-triazol-4-yl)methyl)oxazolo[4,5-b]pyridin-2(3H)-one (4l)]"
8,8.64,"O=c1oc2cccnc2n1Cc1cn(-c2ccc(Br)cc2)nn1 [3-((1-(4-bromophenyl)-1H-1,2,3-triazol-4-yl)methyl)oxazolo[4,5-b]pyridin-2(3H)-one (4b)]"
9,0.65,"Cc1ccccc1-n1cc(Cn2c(=O)oc3cccnc32)nn1 [3-((1-o-tolyl-1H-1,2,3-triazol-4-yl)methyl)oxazolo[4,5-b]pyridin-2(3H)-one (4n)]"
10,0.19,"O=c1oc2cccnc2n1Cc1cn(-c2ccccc2Cl)nn1 [3-((1-(2-chlorophenyl)-1H-1,2,3-triazol-4-yl)methyl)oxazolo[4,5-b]pyridin-2(3H)-one (4g)]"
11,40.1,"Cc1ccc(-n2cc(Cn3c(=O)oc4cccnc43)nn2)cc1C [3-((1-(3,4-dimethylphenyl)-1H-1,2,3-triazol-4-yl)methyl)oxazolo[4,5-b]pyridin-3H)one (4j)]"
12,37.3,"CCOc1ccc(-n2cc(Cn3c(=O)oc4cccnc43)nn2)cc1 [3-((1-(4-ethoxyphenyl)-1H-1,2,3-triazol-4-yl)methyl)oxazolo[4,5-b]pyridin-2(3H)-one (4u)]"
13,0.74,"COc1ccccc1-n1cc(Cn2c(=O)oc3cccnc32)nn1 [3-((1-(2-methoxyphenyl)-1H-1,2,3-triazol-4-yl)methyl)oxazolo[4,5-b]pyridin-2(3H)-one  (4q)]"
14,11,"O=c1oc2cccnc2n1Cc1cn(-c2cccnc2Cl)nn1 [3-((1-(2-chloropyridin-3-yl)-1H-1,2,3-triazol-4-yl)methyl)oxazolo[4,5-b]pyridin-2(3H)-one (4t)]"
15,0.31,"O=c1oc2cccnc2n1Cc1cn(-c2ccccc2Br)nn1 [3-((1-(2-bromophenyl)-1H-1,2,3-triazol-4-yl)methyl)oxazolo[4,5-b]pyridin-2(3H)-one (4f)]"
16,5.73,"O=c1oc2cccnc2n1Cc1cn(-c2ccc(Cl)cc2)nn1 [3-((1-(4-chlorophenyl)-1H-1,2,3-triazol-4-yl)methyl)oxazolo[4,5-b]pyridin-2(3H)-one (4c)]"
17,10.1,"O=c1oc2cccnc2n1Cc1cn(-c2ccccc2)nn1 [3-((1-phenyl-1H-1,2,3-triazol-4-yl)methyl)oxazolo[4,5-b]pyridin-2(3H)-one (4a)]"
18,12.6,"O=c1oc2cccnc2n1Cc1cn(-c2ccc(Cl)c(Cl)c2)nn1 [3-((1-(3,4-dichlorophenyl)-1H-1,2,3-triazol-4-yl)methyl)oxazolo[4,5-b]pyridin-2(3H)-one (4s)]"
19,10.8,"O=c1oc2cccnc2n1Cc1cn(-c2ccc(Cl)cc2Cl)nn1 [3-((1-(2,4-dichlorophenyl)-1H-1,2,3-triazol-4-yl)methyl)oxazolo[4,5-b]pyridin-2(3H)-one (4r)]"
20,12.7,"CCc1ccc(-n2cc(Cn3c(=O)oc4cccnc43)nn2)cc1 [3-((1-(4-ethylphenyl)-1H-1,2,3-triazol-4-yl)methyl)oxazolo[4,5-b]pyridin-2(3H)-one (4h)]"
21,0.23,"O=c1oc2cccnc2n1Cc1cn(-c2cccnc2)nn1 [3-((1-(pyridin-3-yl)-1H-1,2,3-triazol-4-yl)methyl)oxazolo[4,5-b]pyridin-2(3H)-one (4d)]"
